Measured values taken from patent US20250170248A1, “SMARCA DEGRADERS AND USES THEREOF” (Kymera Therapeutics, Inc., priority 2021, published 2025).

Experiments:
Format in all cases: cell-based
[1] = target: T1, SMARCA2 (Homo sapiens, UniProt P51531); assay: MSD SMARCA2 degradation in A549 cell line; details: for Dmax: A549, A549 cells; for Dmax / DC50: 24 h; for DC50 / SMARCA2 MSD A549 degradation 24 h: Average Dmax %: A549 cells; for DC50: read-out: SMARCA2 MSD A549 degradation 24 h: Average external-Abs DC50
T1 sequence (P51531 whole entry): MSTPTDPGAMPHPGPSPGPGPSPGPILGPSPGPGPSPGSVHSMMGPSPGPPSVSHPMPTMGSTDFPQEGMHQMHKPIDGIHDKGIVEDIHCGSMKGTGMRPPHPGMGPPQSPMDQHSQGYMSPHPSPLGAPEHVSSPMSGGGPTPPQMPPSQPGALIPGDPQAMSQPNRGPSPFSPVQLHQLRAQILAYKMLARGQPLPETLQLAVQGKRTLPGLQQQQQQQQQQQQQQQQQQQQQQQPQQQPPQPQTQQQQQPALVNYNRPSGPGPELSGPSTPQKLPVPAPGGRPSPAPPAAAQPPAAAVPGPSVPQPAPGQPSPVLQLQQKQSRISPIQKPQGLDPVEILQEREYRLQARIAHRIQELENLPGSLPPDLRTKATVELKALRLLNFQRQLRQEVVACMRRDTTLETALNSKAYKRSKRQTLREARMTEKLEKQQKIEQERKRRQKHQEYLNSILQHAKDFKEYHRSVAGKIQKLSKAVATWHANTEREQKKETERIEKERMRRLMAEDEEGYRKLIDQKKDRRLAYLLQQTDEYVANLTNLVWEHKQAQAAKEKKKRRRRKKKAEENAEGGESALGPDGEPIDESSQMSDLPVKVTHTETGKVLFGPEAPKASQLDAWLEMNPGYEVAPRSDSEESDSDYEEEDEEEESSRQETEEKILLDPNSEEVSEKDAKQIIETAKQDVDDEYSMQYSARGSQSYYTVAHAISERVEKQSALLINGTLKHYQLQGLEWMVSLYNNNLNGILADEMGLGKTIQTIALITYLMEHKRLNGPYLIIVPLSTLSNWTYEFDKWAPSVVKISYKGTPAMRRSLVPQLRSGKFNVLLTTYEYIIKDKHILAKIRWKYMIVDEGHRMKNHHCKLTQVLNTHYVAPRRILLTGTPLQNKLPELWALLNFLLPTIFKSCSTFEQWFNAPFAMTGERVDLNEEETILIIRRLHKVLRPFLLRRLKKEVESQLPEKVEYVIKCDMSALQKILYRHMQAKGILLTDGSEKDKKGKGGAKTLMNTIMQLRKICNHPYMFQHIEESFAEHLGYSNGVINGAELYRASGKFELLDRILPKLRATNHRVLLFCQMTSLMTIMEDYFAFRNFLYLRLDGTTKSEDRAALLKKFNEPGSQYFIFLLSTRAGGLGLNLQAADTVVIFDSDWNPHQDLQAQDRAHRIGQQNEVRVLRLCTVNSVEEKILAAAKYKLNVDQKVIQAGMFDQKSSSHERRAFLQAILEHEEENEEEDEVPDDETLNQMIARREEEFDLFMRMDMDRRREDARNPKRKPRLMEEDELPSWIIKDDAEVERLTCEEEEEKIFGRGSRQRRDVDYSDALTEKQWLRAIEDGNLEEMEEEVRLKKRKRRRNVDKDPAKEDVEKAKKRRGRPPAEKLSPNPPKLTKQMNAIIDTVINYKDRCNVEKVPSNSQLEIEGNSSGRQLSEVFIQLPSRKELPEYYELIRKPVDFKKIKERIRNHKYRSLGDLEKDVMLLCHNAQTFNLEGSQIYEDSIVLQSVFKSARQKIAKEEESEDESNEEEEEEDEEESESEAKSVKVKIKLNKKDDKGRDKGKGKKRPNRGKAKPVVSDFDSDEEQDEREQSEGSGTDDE
Outline: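 A549 cells treated 24 h with compound, 3-fold series from 1000 nM. Lysates captured on MSD plates and SMARCA2 quantified with anti-SMARCA2 and SULFO-TAG secondary antibodies (electrochemiluminescence). DC50 and Dmax (% degradation at 24 h) reported as letter bins.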

[2] = target: T2, SMARCA4 (Homo sapiens, UniProt P51532); assay: SMARCA4 Western blot degradation in MV4-11 cells; details: for Dmax: MV4-11, MV4-11 cells, read-out: SMARCA4 MSD MV411 degradation 24 h: average Dmax %; for Dmax / DC50: 24 h; for DC50 / SMARCA4 MSD MV411 degradation 24 h: average Dmax %: MV4-11 cells; for DC50: read-out: SMARCA4 MSD MV411 degradation 24 h: Mean external-Abs DC50
T2 construct: SMARCA2/SMARCA4 protein degradation selectivity in MV4-11 cells; endogenous in cells; host or cells: MV4-11
T2 sequence (P51532 whole entry): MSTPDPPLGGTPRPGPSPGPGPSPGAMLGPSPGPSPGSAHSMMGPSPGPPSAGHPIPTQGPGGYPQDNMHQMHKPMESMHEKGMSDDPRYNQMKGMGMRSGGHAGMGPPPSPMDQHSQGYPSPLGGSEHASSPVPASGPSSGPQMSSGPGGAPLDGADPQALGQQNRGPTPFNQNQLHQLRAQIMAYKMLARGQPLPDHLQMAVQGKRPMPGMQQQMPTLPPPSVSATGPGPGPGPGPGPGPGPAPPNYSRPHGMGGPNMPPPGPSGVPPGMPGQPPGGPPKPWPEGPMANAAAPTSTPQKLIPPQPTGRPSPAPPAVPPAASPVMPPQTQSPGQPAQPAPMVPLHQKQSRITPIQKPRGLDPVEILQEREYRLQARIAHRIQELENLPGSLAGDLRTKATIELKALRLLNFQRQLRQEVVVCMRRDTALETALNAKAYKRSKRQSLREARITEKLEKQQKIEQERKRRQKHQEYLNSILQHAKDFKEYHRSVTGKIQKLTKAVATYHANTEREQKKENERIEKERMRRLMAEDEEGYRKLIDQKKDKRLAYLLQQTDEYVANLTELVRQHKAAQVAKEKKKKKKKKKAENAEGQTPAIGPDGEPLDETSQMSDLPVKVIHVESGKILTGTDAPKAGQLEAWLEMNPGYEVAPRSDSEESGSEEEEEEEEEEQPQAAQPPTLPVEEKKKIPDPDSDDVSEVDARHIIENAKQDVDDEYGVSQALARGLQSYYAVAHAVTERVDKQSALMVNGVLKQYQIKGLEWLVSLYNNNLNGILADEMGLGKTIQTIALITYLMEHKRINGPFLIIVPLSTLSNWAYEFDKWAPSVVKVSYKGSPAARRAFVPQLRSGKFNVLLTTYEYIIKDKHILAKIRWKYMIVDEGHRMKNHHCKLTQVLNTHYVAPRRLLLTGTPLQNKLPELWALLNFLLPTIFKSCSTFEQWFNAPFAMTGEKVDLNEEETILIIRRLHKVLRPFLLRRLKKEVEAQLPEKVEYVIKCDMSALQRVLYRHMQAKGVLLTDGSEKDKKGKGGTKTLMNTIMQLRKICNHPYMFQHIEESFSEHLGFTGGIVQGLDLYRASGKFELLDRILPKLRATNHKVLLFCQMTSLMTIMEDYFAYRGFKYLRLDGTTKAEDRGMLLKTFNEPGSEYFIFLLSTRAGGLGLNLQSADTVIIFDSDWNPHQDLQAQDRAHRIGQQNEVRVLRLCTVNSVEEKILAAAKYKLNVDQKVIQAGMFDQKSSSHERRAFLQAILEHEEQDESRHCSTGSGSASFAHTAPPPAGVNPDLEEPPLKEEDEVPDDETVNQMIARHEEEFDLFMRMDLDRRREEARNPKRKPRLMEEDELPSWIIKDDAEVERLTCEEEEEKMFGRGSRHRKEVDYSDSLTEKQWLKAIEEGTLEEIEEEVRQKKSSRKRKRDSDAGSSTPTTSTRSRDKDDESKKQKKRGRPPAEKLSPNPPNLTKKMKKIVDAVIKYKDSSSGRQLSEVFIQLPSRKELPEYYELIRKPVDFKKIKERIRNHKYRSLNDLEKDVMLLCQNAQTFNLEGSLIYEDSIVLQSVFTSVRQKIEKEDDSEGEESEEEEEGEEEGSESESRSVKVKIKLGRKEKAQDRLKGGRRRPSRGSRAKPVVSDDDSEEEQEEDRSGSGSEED
Outline: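 24 h compound exposure, MV4-11; RIPA lysates → SDS-PAGE → NC membrane; anti-SMARCA2/BRM, anti-BRG1, β-actin loading control; LI-COR fluorescence read. DC50 and Dmax at 24 h reported as letter bins.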

[3] = target: T1, SMARCA2; assay: SMARCA2 Western blot degradation in MV4-11 cells; set-up: SMARCA2/SMARCA4 protein degradation selectivity in MV4-11 cells; endogenous in cells; host or cells: MV4-11; details: for Dmax: MV4-11, MV4-11 cells, read-out: SMARCA2 MSD MV411 degradation 24 h: average Dmax %; for Dmax / DC50 / SMARCA2 MSD MV411 degradation 24 h: average Dmax %: 24 h; for DC50 / Selectivity in MV411 / SMARCA2 MSD MV411 degradation 24 h: average Dmax %: MV4-11 cells; for DC50: read-out: SMARCA2 MSD MV411 degradation 24 h: Mean external-Abs DC50; for Selectivity in MV411: SMARCA2/4 selectivity

| SMILES | Dmax [1] [%] | DC50 [1] [nM] | Dmax [2] [%] | DC50 [2] [nM] | Dmax [3] [%] | DC50 [3] [nM] | Selectivity in MV411 [3] | SMARCA2 MSD A549 degradation 24 h: Average Dmax % [1] | SMARCA4 MSD MV411 degradation 24 h: average Dmax % [2] | SMARCA2 MSD MV411 degradation 24 h: average Dmax % [3] |
| --- | --- | --- | --- | --- | --- | --- | --- | --- | --- | --- |
| C#Cc1ccc(CNC(=O)[C@@H]2C[C@@H](O)CN2C(=O)[C@@H](NC(=O)[C@H]2CCC3(CC2)C[C@H](N2CCN(c4cnc(N5CCN6c7cc(-c8ccccc8O)nnc7NC[C@H]6C5)nc4)CC24CC4)C3)C(C)(C)C)cc1 (some centres unmarked) [I-266] | > 90 | 50 to 100 | 50 to 70 | > 100 | > 90 | 10 to 100 | C (C (10-100 fold)) | – | – | – |
| Cc1ncsc1-c1ccc(CNC(=O)[C@@H]2C[C@@H](O)CN2C(=O)[C@@H](NC(=O)[C@H]2CC3(CC[C@H](N4CCN(c5cnc(N6CCc7[nH]c8nnc(-c9ccccc9O)cc8c7[C@H]6C)nc5)CC4)CC3)C2)C(C)(C)C)cc1 (single isomer, unassigned) [I-79] | – | > 100 | – | > 100 | – | 10 to 100 | C (C (10-100 fold)) | A (A (>90% degradation)) | D (D (<50% degradation)) | B (B (>70-90% degradation)) |
| C#Cc1ccc(CNC(=O)[C@@H]2C[C@@H](O)CN2C(=O)[C@@H](NC(=O)N2CC3(CC(N4CCC(c5cnc(N6CCc7[nH]c8nnc(-c9ccccc9O)cc8c7[C@H]6C)nc5)CC4)C3)C2)C(C)(C)CCN2CCNCC2)cc1 [I-340] | 50 to 70 | > 100 | < 50 | > 100 | < 50 | > 100 | C (C (10-100 fold)) | – | – | – |
| C#Cc1ccc(CNC(=O)[C@@H]2C[C@@H](O)CN2C(=O)[C@@H](NC(=O)N2CC3(CC(N4CCC(c5cnc(N6CCc7[nH]c8nnc(-c9ccccc9O)cc8c7[C@H]6C)nc5)CC4)C3)C2)C(C)(C)CCOCC(=O)O)cc1 (single isomer, unassigned) [I-262] | 50 to 70 | > 100 | 50 to 70 | > 100 | 70 to 90 | 10 to 100 | C (C (10-100 fold)) | – | – | – |
| C#Cc1ccc(CNC(=O)[C@@H]2C[C@@H](O)CN2C(=O)[C@@H](NC(=O)[C@H]2CC3(C2)C[C@H](N2CCC(N4CCC(N5CCN6c7cc(-c8ccccc8O)nnc7NC[C@H]6C5)CC4)CC2)C3)C(C)(C)CCO)cc1 (single isomer, unassigned) [I-365] | – | > 100 | – | > 100 | – | 1 to 10 | A (A (>500 fold)) | A (A (>90% degradation)) | D (D (<50% degradation)) | B (B (>70-90% degradation)) |
| C#Cc1ccc([C@H](C)NC(=O)[C@@H]2C[C@@H](O)CN2C(=O)[C@@H](NC(=O)N2CC3(CC(N4CCC(c5cnc(N6CCc7[nH]c8nnc(-c9ccccc9O)cc8c7[C@H]6C)nc5)CC4)C3)C2)C(C)(C)C)c(OC)c1 [I-167] | > 90 | 10 to 50 | 70 to 90 | > 100 | 70 to 90 | 1 to 10 | C (C (10-100 fold)) | – | – | – |
| C#Cc1ccc(CNC(=O)[C@@H]2C[C@@H](O)CN2C(=O)[C@@H](NC(=O)[C@H]2CCC3(CC2)C[C@H](N2CCC(c4cnc(N5CCN6c7cc(-c8ccccc8O)nnc7NC[C@H]6C5)nc4)CC2)C3)C(C)(C)C)c(Cl)c1 (single isomer, unassigned) [I-99] | – | < 10 | – | > 100 | – | 1 to 10 | B (B (>100-500 fold)) | A (A (>90% degradation)) | C (C (50-70% degradation)) | B (B (>70-90% degradation)) |
| C#Cc1ccc([C@H](C)NC(=O)[C@@H]2C[C@@H](O)CN2C(=O)[C@@H](NC(=O)[C@H]2CC3(C2)C[C@H](c2cnc(N4CCC(N5CCN6c7cc(-c8ccccc8O)nnc7NC[C@H]6C5)CC4)nc2)C3)C(C)(C)C)cc1 (some centres unmarked) [I-362] | > 90 | 10 to 50 | 70 to 90 | > 100 | 70 to 90 | 1 to 10 | C (C (10-100 fold)) | – | – | – |
| Cc1ncsc1-c1ccc(CNC(=O)[C@@H]2C[C@@H](O)CN2C(=O)[C@@H](NC(=O)N2CC3(CC(N4CCC(c5cnc(N6CCc7[nH]c8nnc(-c9ccccc9O)cc8c7[C@H]6C)nc5)CC4)C3)C2)C(C)(C)C)cc1 [I-58, N—((S)-1-((2S,4R)-4-hydroxy-2-((4-(4-methylthiazol-5-yl)benzyl)carbamoyl)pyrrolidin-1-yl)-3,3-dimethyl-1l-oxobutan-2-yl)-6-(4-(2-((R)-3-(2-hydroxyphenyl)-5-methyl-7,8-dihydro-5H-pyrido [3′, 4′: 4,5]pyrrolo [2,3-c]pyridazin-6(9H)-yl)pyrimidin-5-yl)piperidin-1-yl)-2-azaspiro[3.3]heptane-2-carboxamide] | > 90 | 10 to 50 | 50 to 70 | > 100 | 70 to 90 | 1 to 10 | B (B (>100-500 fold)) | – | – | – |
| C#CCOc1cc(C(C(=O)N2C[C@H](O)C[C@H]2C(=O)NCc2ccc(-c3scnc3C)cc2O[C@H]2CC[C@H](N3CCC(c4cnc(N5CCc6[nH]c7nnc(-c8ccccc8O)cc7c6[C@H]5C)nc4)CC3)CC2)C(C)C)on1 (single isomer, unassigned) [I-38] | > 90 | 10 to 50 | > 90 | 10 to 100 | > 90 | < 1 | C (C (10-100 fold)) | – | – | – |
| C#Cc1ccc(CNC(=O)[C@@H]2C[C@@H](O)CN2C(=O)[C@@H](NC(=O)[C@H]2CC3(CC[C@H](N4CCN(c5cnc(N6CCc7[nH]c8nnc(-c9ccccc9O)cc8c7[C@H]6C)nc5)CC4)CC3)C2)C(C)(C)C)cc1 (single isomer, unassigned) [I-285] | > 90 | 10 to 50 | 70 to 90 | > 100 | 70 to 90 | 10 to 100 | C (C (10-100 fold)) | – | – | – |
| C#Cc1ccc(CNC(=O)[C@@H]2C[C@@H](O)CN2C(=O)[C@H](NC(=O)[C@H]2CCC3(CC2)C[C@H](N2CCN(c4cnc(N5CCN6c7cc(-c8ccccc8O)nnc7NC[C@H]6C5)nc4)CC2)C3)C(C)(C)CCO)c(Cl)c1 (some centres unmarked) [I-307] | – | > 100 | – | > 100 | – | – | D (D (<10 fold)) | – | D (D (<50% degradation)) | – |
| CC(C)(C)[C@H](NC(=O)[C@H]1CCC2(CC1)C[C@H](N1CCC(c3cnc(N4CCN5c6cc(-c7ccccc7O)nnc6NC[C@H]5C4)nc3)CC1)C2)C(=O)N1C[C@H](O)C[C@H]1C(=O)NCC#Cc1ccc(Cl)cc1 (single isomer, unassigned) [I-114] | – | > 100 | – | > 100 | – | > 100 | C (C (10-100 fold)) | D (D (<50% degradation)) | D (D (<50% degradation)) | D (D (<50% degradation)) |
| C#Cc1ccc([C@H](CO)NC(=O)[C@@H]2C[C@@H](O)CN2C(=O)[C@@H](NC(=O)N2CC3(CC(N4CCC(c5cnc(N6CCc7[nH]c8nnc(-c9ccccc9O)cc8c7[C@H]6C)nc5)CC4)C3)C2)C(C)(C)C)nc1 (single isomer, unassigned) [I-304] | > 90 | 50 to 100 | < 50 | > 100 | 70 to 90 | 1 to 10 | B (B (>100-500 fold)) | – | – | – |
